Usually Ki stands for the dissociation constant of the complex between target and ligand, obtained from inhibition or displacement. As a reminder, the IC50 is the concentration that gives 50% inhibition.

For experiment [1], the target named is Delta-type opioid receptor (Homo sapiens, UniProt P41143). Description: Displacement of […] from human DOR expressed in HEK293 cell membrane. In kind it is cell membranes. A general note: In a radioligand displacement assay an active substance lowers the binding of a labelled ligand.
For experiment [2], the target named is Kappa-type opioid receptor (Homo sapiens, UniProt P41145). Description: Displacement of […] from human KOR expressed in HEK293 cell membrane. Type of experiment: cell membranes.
Another experiment addresses Mu-type opioid receptor (Homo sapiens, UniProt P35372). In words: Displacement of [3H]DAMGO from human MOR expressed in HEK293 cell membrane. Type of experiment: cell membranes.
Experiment [3] addresses T1, Orexin/Hypocretin receptor type 1 (Homo sapiens, UniProt O43613).
T1 sequence (O43613 whole entry): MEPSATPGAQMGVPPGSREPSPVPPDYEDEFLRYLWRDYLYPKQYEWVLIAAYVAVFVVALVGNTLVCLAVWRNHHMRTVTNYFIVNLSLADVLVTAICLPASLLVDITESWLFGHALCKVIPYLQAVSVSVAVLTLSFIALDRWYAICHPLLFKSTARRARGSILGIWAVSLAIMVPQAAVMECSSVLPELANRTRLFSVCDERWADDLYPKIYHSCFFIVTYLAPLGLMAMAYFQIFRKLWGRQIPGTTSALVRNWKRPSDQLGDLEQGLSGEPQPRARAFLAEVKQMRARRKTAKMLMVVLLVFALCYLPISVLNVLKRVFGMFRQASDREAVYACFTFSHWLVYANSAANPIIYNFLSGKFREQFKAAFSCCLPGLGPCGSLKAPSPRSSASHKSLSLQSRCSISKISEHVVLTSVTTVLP
Description: Binding affinity to OX1R (unknown origin) by calcium assay.

The species named for experiment [4] is Homo sapiens. In words: Selectivity index, ratio of Ki for displacement of […] from human DOR expressed in HEK293 cell membrane to displacement of […] from human KOR expressed in HEK293 cell membrane.
The species entered for experiment [5] is Homo sapiens. Description: Selectivity index, ratio of Ki for displacement of [3H]DAMGO from human MOR expressed in HEK293 cell membrane to displacement of […] from human KOR expressed in HEK293 cell membrane.

Sequence of Kappa-type opioid receptor (P41145 whole entry): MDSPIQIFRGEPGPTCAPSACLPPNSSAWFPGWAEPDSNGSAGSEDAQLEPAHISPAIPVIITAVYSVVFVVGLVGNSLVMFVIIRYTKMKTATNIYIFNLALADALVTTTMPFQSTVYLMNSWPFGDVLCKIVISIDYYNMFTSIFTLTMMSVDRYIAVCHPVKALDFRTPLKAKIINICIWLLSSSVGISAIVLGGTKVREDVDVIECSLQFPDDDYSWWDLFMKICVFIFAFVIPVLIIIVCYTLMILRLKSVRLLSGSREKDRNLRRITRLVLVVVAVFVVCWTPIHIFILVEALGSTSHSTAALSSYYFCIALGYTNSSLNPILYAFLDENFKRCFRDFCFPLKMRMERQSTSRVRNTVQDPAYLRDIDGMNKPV
Sequence of Mu-type opioid receptor (P35372 whole entry): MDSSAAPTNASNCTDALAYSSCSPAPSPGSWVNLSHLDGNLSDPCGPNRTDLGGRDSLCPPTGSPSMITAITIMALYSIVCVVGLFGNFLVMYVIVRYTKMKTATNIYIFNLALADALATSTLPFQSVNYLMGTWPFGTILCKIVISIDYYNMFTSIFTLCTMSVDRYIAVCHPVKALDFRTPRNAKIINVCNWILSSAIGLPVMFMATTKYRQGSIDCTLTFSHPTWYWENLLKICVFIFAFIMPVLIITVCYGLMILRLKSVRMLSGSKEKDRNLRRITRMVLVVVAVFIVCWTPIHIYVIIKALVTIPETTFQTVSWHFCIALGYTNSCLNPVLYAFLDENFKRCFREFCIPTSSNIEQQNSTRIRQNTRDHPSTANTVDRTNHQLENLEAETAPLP
Sequence of Delta-type opioid receptor (P41143 whole entry): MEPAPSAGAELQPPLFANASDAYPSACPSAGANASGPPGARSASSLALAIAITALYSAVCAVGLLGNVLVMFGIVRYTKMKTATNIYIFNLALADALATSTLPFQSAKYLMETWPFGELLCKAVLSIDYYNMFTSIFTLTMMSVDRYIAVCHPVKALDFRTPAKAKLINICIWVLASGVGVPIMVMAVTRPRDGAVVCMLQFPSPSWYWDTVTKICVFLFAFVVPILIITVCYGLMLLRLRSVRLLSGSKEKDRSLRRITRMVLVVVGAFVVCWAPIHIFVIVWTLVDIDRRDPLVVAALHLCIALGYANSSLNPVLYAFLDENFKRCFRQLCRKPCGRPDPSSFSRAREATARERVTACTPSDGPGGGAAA

For `CN(C(=O)/C=C/c1ccoc1)[C@@H]1CC[C@@]2(O)[C@H]3Cc4ccc(O)c5c4[C@@]2(CN3CC2CC2)[C@H]1O5`, the inhibition constant Ki (in experiment [1]; in experiment [2]; on Mu-type opioid receptor) was more than 5000 nM in each case.

For `COc1ccc2c3c1O[C@H]1[C@H](N(C)C(=O)/C=C/c4ccoc4)CCC4[C@@H](C2)N(CC2CC2)C[C@@]341` (some centres undefined), in experiment [3], the IC50 is more than 10000 nM.

Consider `COc1ccc2c3c1O[C@H]1[C@H](N(C)C(=O)/C=C/c4ccoc4)CCC4[C@@H](C2)N(CC2CC2)CC[C@@]341` (some centres undefined), for which, in experiment [3], the inhibition constant (Ki) was determined as 28.7 nM.

For the compound `COc1ccc2c3c1O[C@H]1[C@H](N(C)C(=O)/C=C/c4ccoc4)CC=C4[C@@H](C2)N(CC2CC2)CC[C@]431`, the Ki in experiment [3] amounted to 19 nM.

Turning to `CN(C(=O)/C=C/c1ccoc1)[C@@H]1CCC2[C@H]3Cc4ccc(O)c5c4[C@@]2(CN3CC2CC2)[C@H]1O5` (some centres undefined), the results for the Ki (in experiment [1]; in experiment [2]; on Mu-type opioid receptor) were more than 10000 nM, 283 nM and more than 10000 nM, respectively. The half-inhibitory concentration (IC50) in experiment [3] is more than 10000 nM.

`COc1ccc2c3c1O[C@H]1[C@H](N(C)C(=O)/C=C/c4ccoc4)CC=C4[C@@H](C2)N(CC2CC2)C[C@]431`: the half-inhibitory concentration (IC50) in experiment [3] was more than 10000 nM.

Take `CN(C(=O)/C=C/c1ccoc1)[C@@H]1CCC2[C@H]3Cc4ccc(O)c5c4[C@@]2(CCN3CC2CC2)[C@H]1O5` (some centres undefined): the inhibitory constant (Ki) worked out at 9.76 nM in experiment [1], 0.0272 nM in experiment [2], 218 nM in experiment [3] and 0.158 nM at Mu-type opioid receptor. The figures for the Ratio Ki in the experiment listed under Homo sapiens [4] and in the experiment listed under Homo sapiens [5] were 359 and 5.8, respectively.

In the case of `CN(C(=O)/C=C/c1ccoc1)[C@@H]1CC[C@@]2(O)[C@H]3Cc4ccc(O)c5c4[C@@]2(CCN3CC2CC2)[C@H]1O5` [NALFURAFINE], the inhibition constant Ki in experiment [1] came out at 36.5 nM; on Mu-type opioid receptor it was 0.7 nM.

As to `CN(C(=O)/C=C/c1ccoc1)[C@@H]1CC=C2[C@H]3Cc4ccc(O)c5c4[C@@]2(CCN3CC2CC2)[C@H]1O5`, the inhibitory constant (Ki) in experiment [1] turned out to be 26.3 nM; in experiment [2], 0.0356 nM; in experiment [3], 30.5 nM; at Mu-type opioid receptor, 3.57 nM. The figures for the Ratio Ki in the experiment filed under Homo sapiens [4] and in the experiment listed under Homo sapiens [5] were 739 and 100, respectively.

Consider `CN(C(=O)/C=C/c1ccoc1)[C@@H]1CC=C2[C@H]3Cc4ccc(O)c5c4[C@@]2(CN3CC2CC2)[C@H]1O5`, for which the Ki was more than 10000 nM in experiment [1], 1410 nM in experiment [2] and more than 10000 nM at Mu-type opioid receptor. For the same compound, in experiment [3], the 50% inhibitory concentration (IC50) was more than 10000 nM.

The values are drawn from ChEMBL document CHEMBL5131431, “Effect of removal of the 14-hydroxy group on the affinity of the 4,5-epoxymorphinan derivatives for orexin and opioid receptors” (Bioorg Med Chem Lett, 2022).
